The source of these data is article PMC5399635 (The Journal of Pharmacology and Experimental Therapeutics, 2017).

The Kb is the equilibrium dissociation constant of an antagonist, usually derived from a functional assay. Usually pA2 stands for the negative logarithm of the molar antagonist concentration that doubles the agonist concentration needed for the same response. What is called Ki is a measure of affinity in units of concentration, obtained from inhibition or displacement. As usually defined, the ED50 is the dose at which the effect has come halfway, by size or by number of responders. The term Papp A→B denotes the apparent permeability from the apical to the basolateral side of a cell layer. Low readings indicate slow passage, high ones fast passage. In general, Papp B→A refers to the apparent permeability from the basolateral to the apical side of a cell layer.

The conditions of data set [1]: rat, in vivo, 30 s, 20 μM, pH 7.4.
Data set [2] concerns the target T1, human µ-opioid receptor (Homo sapiens, UniProt P35372). The data set can be described thus: [35S]GTPγS binding, Schild-type antagonism of morphine (CHO-K1 membranes).
The target in a further data set is T2, rat κ-opioid receptor (Rattus norvegicus, UniProt P34975).
T2 construct: expressed in transfected cells; host or cells: CHO cells
T2 sequence (P34975 whole entry): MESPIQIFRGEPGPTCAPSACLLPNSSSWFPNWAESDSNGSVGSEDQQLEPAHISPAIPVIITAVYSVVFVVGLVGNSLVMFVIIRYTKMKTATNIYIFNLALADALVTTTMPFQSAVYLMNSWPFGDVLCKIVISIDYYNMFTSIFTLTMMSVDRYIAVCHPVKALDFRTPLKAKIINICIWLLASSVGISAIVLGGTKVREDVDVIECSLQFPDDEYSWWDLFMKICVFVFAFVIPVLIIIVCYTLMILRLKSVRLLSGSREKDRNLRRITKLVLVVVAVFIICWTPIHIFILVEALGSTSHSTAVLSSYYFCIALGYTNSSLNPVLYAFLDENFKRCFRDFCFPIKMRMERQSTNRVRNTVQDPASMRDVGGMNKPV
The data set can be described thus: Radioligand binding, κ-opioid receptor ([3H]U69593). To be noted: cloned rat κ-opioid receptors; read-out: geometric mean Ki. How it is done: Competitive inhibition studies were performed on cloned opioid receptors expressed in membranes of Chinese hamster ovary (CHO) cells and conducted in triplicate (n = 3 independent experiments).
Radioligand binding assays were performed to evaluate the ability of these agents to inhibit specific radioligand binding to cloned opioid receptor subtypes. Half-maximal inhibitory concentration (IC50), equilibrium dissociation constant for the inhibitor (Ki), and negative log of the equilibrium dissociation constant for the inhibitor (pKi) values were obtained. The receptor binding methods used for µ ([Zhang et al., 1998])-, δ ([Simonin et al., 1994])-, and κ ([Meng et al., 1993])-opioid receptors have been described previously, with the exception that 100 mM NaCl was added to the incubation buffer in the µ-opioid receptor binding assay. All assays were conducted in 200-µl volume. All assay incubations were terminated by filtration, and bound radioligand was quantitated by liquid scintillation spectrometry. The IC50 values were determined by nonlinear regression analysis of the competition curves generated with the mean of duplicate values using Hill equation curve fitting. The inhibition constants (Ki) were calculated using the Cheng-Prusoff equation. The pKi results from three independent experiments were analyzed for significant differences by one-way analysis of variance (ANOVA) followed by Bonferroni multiple comparison test.

The target of data set [3] is T1, human µ-opioid receptor. As to the kind of experiment: Radioligand binding, µ-opioid receptor ([3H]diprenorphine). Set-up: expressed in transfected cells; b18 says CHO cells. To be noted: read-out: geometric mean Ki.
Data set [4] has as its system morphine-induced inhibition of gastrointestinal transit. As to the kind of experiment: Gastrointestinal transit model (charcoal meal), antagonism of morphine.
The nature of data set [5]: In situ rat brain perfusion model. To be noted: 30 s perfusion, test compound 20 μM, atenolol 50 μM, antipyrine 5 μM, mean ± S.D.
A further data set can be described thus: in vitro. To be noted: human.
For data set [6], the system named is morphine-induced antinociception. The data set can be described thus: Hot plate model of nociception, antagonism of morphine.

Counter-ions that a name gives are not always drawn. Like-named read-outs stand apart in the source and are kept apart here.

T1 sequence (P35372 whole entry): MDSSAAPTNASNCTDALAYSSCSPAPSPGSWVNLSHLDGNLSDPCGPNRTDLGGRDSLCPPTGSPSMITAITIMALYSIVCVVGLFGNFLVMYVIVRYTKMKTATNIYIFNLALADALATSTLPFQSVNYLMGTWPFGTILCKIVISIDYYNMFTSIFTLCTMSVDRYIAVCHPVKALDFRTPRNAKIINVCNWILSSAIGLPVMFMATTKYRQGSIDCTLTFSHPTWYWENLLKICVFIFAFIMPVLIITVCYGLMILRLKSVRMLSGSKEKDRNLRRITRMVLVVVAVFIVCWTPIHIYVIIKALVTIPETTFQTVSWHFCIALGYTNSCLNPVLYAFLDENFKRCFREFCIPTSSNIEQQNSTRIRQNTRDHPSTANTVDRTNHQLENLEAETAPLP

On to `Cc1cc(=O)n(-c2ccccc2)n1C` [Antipyrine, antipyrine], for which the “Brain Uptake” value in data set [1] was determined as 28.2 ± 14.3 pmol/g brain/s.

On to `C[N@+]1(CC2CC2)CC[C@]23c4c5ccc(O)c4O[C@H]2C(=O)CC[C@@]3(O)[C@H]1C5` [Methylnaltrexone, Methylnaltrexone bromide], for which the Kb on human µ-opioid receptor [2] was determined as 37 nM. The compound further came in with a pA2 at human µ-opioid receptor [2] (versus morphine, 3 independent experiments) of 7.43 ± 0.02. Besides, the Schild slope entry on human µ-opioid receptor [2] (versus morphine, pooled 3 experiments) is listed as “–0.982”. Moreover, the Ki was determined as 10.9 nM on rat κ-opioid receptor and 22.1 nM on human µ-opioid receptor [3].

`C=CCN1CC[C@]23c4c5ccc(O)c4O[C@H]2C(=O)CC[C@@]3(O)[C@H]1C5` [Naloxone, naloxone hydrochloride, reference compound]: the “oral dose that completely reversed the effect of morphine” value in data set [4] (GI transit assay, rat) is given as no less than 10 mg/kg. For the same compound, the ED50 in data set [4] (Rattus norvegicus, read-out: ED50, antagonism of morphine in GI transit) worked out at 0.69 mg/kg; in data set [6] (Rattus norvegicus, po, read-out: ED50, antagonism of morphine analgesia), 1.14 mg/kg. Further, the “Brain Uptake” value in data set [5] is on record as 60.2 ± 13.7 pmol/g brain/s. In addition, the Papp A→B at 2 h, 10 μM in the data set “in vitro” (Caco-2, pH 7.4, Papp A→B, no P-gp inhibitor, mean of 3 experiments) amounted to 27.3 ×10⁻⁶ cm/s; in the data set “in vitro” (Caco-2, pH 7.4, with cyclosporin A, Papp A→B, Cyclosporin A) it was 28.4 ×10⁻⁶ cm/s; in “in vitro” (Caco-2, pH 7.4, with elacridar, 0.5 μM, Papp A→B, Elacridar) it was 24.8 ×10⁻⁶ cm/s; in “in vitro” (Caco-2, pH 7.4, with verapamil, 100 μM, Papp A→B, Verapamil), 24.5 ×10⁻⁶ cm/s. In addition, the Papp B→A at 2 h, 10 μM stood at 25 ×10⁻⁶ cm/s in the data set “in vitro” (Caco-2, pH 7.4, Papp B→A, no P-gp inhibitor, mean of 3 experiments); 23.7 ×10⁻⁶ cm/s in “in vitro” (Caco-2, pH 7.4, with cyclosporin A, Papp B→A, Cyclosporin A); 27.3 ×10⁻⁶ cm/s in “in vitro” (Caco-2, pH 7.4, with elacridar, 0.5 μM, Papp B→A, Elacridar); 24.9 ×10⁻⁶ cm/s in the data set “in vitro” (Caco-2, pH 7.4, with verapamil, 100 μM, Papp B→A, Verapamil). The “oral dose that completely reversed the analgesic effect of morphine” value in data set [6] (hot plate assay, rat) is recorded as no less than 10 mg/kg.
